Measurements reported in patent publication US20140072557A1, “MEDICINAL AGENT FOR SUPPRESSING MALIGNANT TUMOR METASTASIS” (priority 2011, published 2014).

Tests used:
A549 cells [1] = experiment: EMT induced by TGF-β1 in A549 cells (morphology, quantitative RT-PCR); format: cell-based; conditions: 1 μM hANP, TGF-β1 stimulus
Experimental: Using a 6-well dish, the A549 cells were cultured at 1×10^5 cells/well, and the culture medium was replaced with DMEM culture medium free from FBS the next day. After 24 hours of culture, the cells were used in the following experiment.
An ANP group (ANP solution was added (final concentration: 1 μM)) and a control group (the same amount of physiological saline was added) were prepared, and after 2 hours from the addition, TGF-β1 was added so that the final concentration would be 0.125, 0.25, 0.5, 1.0, and 2.0 ng/mL. After 24 hours had passed, the morphological change in the cells was observed under a microscope and photographed (FIG. 3).
Then, total RNA was collected using TRIZOL total RNA isolation reagent (made by Invitrogen), cDNA was synthesized using reverse transcriptase, and the mRNA levels of E-cadherin, N-cadherin, VEGF-A, PDGF-B, TNF-α, and IL-6 were measured by quantitative RT-PCR. It is known that in EMT, the expression of E-cadherin decreases while the expression of N-cadherin increases. The expression ratio of N-cadherin/E-cadherin is considered to be useful as an indicator of the degree of EMT.

A549 cells [2] = experiment: Mouse tail vein injection metastasis test, GFP-labeled A549 cells; format: in vivo; conditions: hANP 0.5 μg/kg/min by subcutaneous osmotic pump for 4 weeks, observed 8 weeks after injection, Balb/c (nu/nu) mice
Experimental: Six-week-old male Balb/c (nu/nu) mice were used (purchased from Japan SLC, Inc.).
The osmotic pumps used were MODEL2004 (for 28-day administration) made by ALZET (Cupertino, Calif.).
Mice into which an osmotic pump containing 0.9% physiological saline was subcutaneously implanted in the back were assigned to the control group. Similarly, mice into which an osmotic pump containing hANP prepared for administration at 0.5 μg/kg/min was subcutaneously implanted were assigned to the ANP group. Injection of a tumor cell suspension was performed on the day after the osmotic pump implantation.
As the tumor cells, A549 cell line labeled with GFP (Green Fluorescent Protein) was purchased from Wako Pure Chemical Industries, Ltd., and cultured in RPMI1640 (Life Technologies Corp.) containing 10% FCS under 5% CO2 at 37° C. The cells in a subconfluent state were treated with EDTA-trypsin, centrifuged, and then suspended in serum free DMEM so as to be 1×10^7 cells/mL. The A549 cell suspension (100 μL/body, 1×10^6 cells) was injected to the tail vein of the mice.

Q: For `CC[C@H](C)[C@@H]1NC(=O)[C@H](CCCNC(=N)N)NC(=O)[C@H](CC(=O)O)NC(=O)[C@H](CCSC)NC(=O)[C@H](CCCNC(=N)N)NC(=O)CNC(=O)CNC(=O)[C@H](Cc2ccccc2)NC(=O)[C@@H](NC(=O)[C@H](CO)NC(=O)[C@H](CO)NC(=O)[C@H](CCCNC(=N)N)NC(=O)[C@H](CCCNC(=N)N)NC(=O)[C@H](CC(C)C)NC(=O)[C@@H](N)CO)CSSC[C@@H](C(=O)N[C@@H](CC(N)=O)C(=O)N[C@@H](CO)C(=O)N[C@@H](Cc2ccccc2)C(=O)N[C@@H](CCCNC(=N)N)C(=O)N[C@@H](Cc2ccc(O)cc2)C(=O)O)NC(=O)CNC(=O)[C@H](CC(C)C)NC(=O)CNC(=O)[C@H](CO)NC(=O)[C@H](CCC(N)=O)NC(=O)[C@H](C)NC(=O)CNC1=O` [hANP, carperitide], which “expression of E-cadherin under TGF-β1 stimulus” value (A549 cells [1]) is on record?
A: The value was “inhibited decrease”.

Q: And the “expression of N-cadherin induced by TGF-β1” value (A549 cells [1])?
A: The value was “significantly suppressed increase”.

Q: What about the “expression ratio of N-cadherin/E-cadherin” value (A549 cells [1]) of the same compound?
A: Its value is “significantly decreased”.

Q: What about the “gene expression of IL-6 (mRNA level)” value (A549 cells [1]) of the same compound?
A: Its value is “significantly suppressed”.

Q: What about the “gene expression of PDGF-B (mRNA level)” value (A549 cells [1]) of the same compound?
A: Its value is “significantly suppressed”.

Q: What about the “gene expression of TNF-α (mRNA level)” value (A549 cells [1]) of the same compound?
A: Its value is “significantly suppressed”.

Q: And the “gene expression of VEGF-A (mRNA level)” value (A549 cells [1])?
A: The value was “significantly suppressed”.

Q: What about the “morphological change associated with EMT induced by TGF-β1” value (A549 cells [1]; 24 hours) of the same compound?
A: Its value is “significantly suppressed”.

Q: And the “lung metastasis (number of nodules)” value (A549 cells [2])?
A: Its value is “significantly suppressed”.
